Assay results published in patent US12377164B2, “Linkers and conjugates” (ASTRAZENECA AB, priority 2018, dated 2025).
Non-standard residues stand in square brackets, D forms with d. Residues, ends and D or L forms follow the SMILES beside them. *: point of attachment. Dolaproine = CO[C@@H]([C@@H]1CCCN1)[C@@H](C)C(=O)O; Dil = CC[C@H](C)[C@H](NC)[C@@H](CC(=O)O)OC; X1 = C[C@@H](N*)[C@@H](O)c1ccccc1; NMeV = CN[C@H](C(=O)O)C(C)C

Experiments:
[1] = Stability of model cysteine conjugates incubated with excess reduced L-glutathione (GSH), tracked via 1H NMR; type: physicochemical; settings: 3 equivalents GSH, pH 7.4 buffer, 37° C., after two weeks
Description: The stability of conjugate 3 under physiological conditions was investigated by incubation with excess (3 equivalents) reduced L-glutathione (GSH) in pH 7.4 buffer (40% CD-3OD/NaPi—50 mM) at 37° C. The stability was tracked via ^1H NMR and almost no degradation (<5%) was observed after two weeks.

[2] = tested on: HER2-negative MCF7 and T47D cells; assay: Cell viability (CellTiter-Glo), HER2-negative cells; type: cell-based; settings: 96 h, HER2-negative cell lines, FIG. 2
Description: (§1) HER2-positive SKBR3 and BT474 cells were obtained from the American Type Culture Collection (ATCC) and HER2-negative MCF7 and T47D cells were obtained from the European Collection of Authenticated Cell Cultures (ECACC) and ATCC, respectively. SKBR3 cells were maintained in high glucose McCoy's 5A medium, supplemented with 10% heat-inactivated foetal-bovine serum (FBS), 50 U/mL penicillin and 50 μg/mL streptomycin. MCF7 cells were maintained in Dulbecco's Modified Eagle Medium (DMEM) supplemented with 10% heat-inactivated fetal-bovine serum (FBS), 2 mM L-glutamine, 50 U/mL penicillin and 50 μg/mL streptomycin. BT474 and T47D cell lines were maintained in RPM11640 medium supplemented with 10% heat-inactivated fetal-bovine serum (FBS), 2 mM L-glutamine, 50 U/mL penicillin and 50 μg/mL streptomycin. All cell lines were incubated at 37° C. with 5% CO2.
(§2) Cells were seeded in 96-well plates for 24 h at 37° C. with 5% CO2. SKBR3 cells were seeded at 15,000 cells/well, BT474 cells were seeded at 20,000 cells/well, MCF7 cells were seeded at 7,500 cells/well and T47D cells were seeded at 10,000 cells/well. […] Cell viability was measured using CellTiter-Glo viability assay (Promega) according to the manufacturer's instructions. Cell viability was plotted as a percentage of untreated cells.

[3] = tested on: HER2-positive SKBR3 and BT474 cells; assay: Cell viability (CellTiter-Glo), HER2-positive cells; type: cell-based; settings: 96 h, HER2-positive cell lines, FIG. 2
Description: as §1, §2

trastuzumab Fab = assay: Trastuzumab Fab conjugation kinetic experiment (LC-MS); settings: 10 and 20 equivalents of linker, after 15 minutes, 37° C.
Description: The mixtures were vortexed and incubated at 37° C. for 1 h. A solution of 8 (10 mM in DMSO) was added to each solution (final concentration equal to 10 and 20 equivalents) and the reaction mixture incubated at 37° C. At t=0, 5, 10, 15, 20, 30, 40 and 60 min, 0.5 μL was removed from each reaction, diluted with MilliQ water (9 μL) and quenched with 100 eq. of cysteine (5 mM in DMSO). LC-MS analysis was then used to quantify conversion.

COC(=O)[C@H](CSC1CC(=O)N(Cc2ccccc2)C1=O)NC(=O)OC(C)(C)C (stereo partly drawn) [compound 6, methyl S-(1-benzyl-2,5-dioxopyrrolidin-3-yl)-N-(tert-butoxycarbonyl)-L-cysteinate]
conversion to the glutathione conjugate [1]: > 50%

COC(=O)[C@H](CSCCc1ccnc(N)n1)NC(=O)OC(C)(C)C [compound 3]
degradation [1]: < 5%

CC[C@H](C)[C@@H]([C@@H](CC(=O)N1CCC[C@H]1[C@H](OC)[C@@H](C)C(=O)N[C@H](C)[C@@H](O)c1ccccc1)OC)N(C)C(=O)[C@@H](NC(=O)[C@@H](NC)C(C)C)C(C)C [MMAE] (H-[NMeV]V[Dil][Dolaproine]-X1)
cytotoxicity (cell viability) [2]: high levels of cytotoxicity
cytotoxicity (cell viability) [3]: high levels of cytotoxicity

C#CCCCCNc1nc(C=C)cc(C=C)n1 [compound 8, N-(hex-5-yn-1-yl)-4,6-divinylpyrimidin-2-amine]
re-bridging of the Fab chains (trastuzumab Fab): > 90%
